Assay results published in US8414914B2, “Compositions for mucosal delivery of agents” (Virun, Inc., priority 2004, dated 2013).

Assay: IV study in dogs: plasma insulin and glucose after IV injection of human insulin
Type: in vivo, Mongrel dogs
Experimental: Oral bioavailability of insulin composition was determined using an IV study followed by an oral crossover study and the relative areas of under the curve, plasma half life, Cmax, and Tmax was calculated. […] Following data collection, plasma concentration, plasma half-life, peak concentration (Cmax) and time to reach Cmax (tmax) were determined. From the areas under the curve, percent oral bioavailability was determined.

[1] = dog #71, IV 0.01 mg/kg, 120 min
[2] = dog #71, IV 0.01 mg/kg, 180 min
[3] = dog #71, IV 0.01 mg/kg, 240 min
[4] = dog #72, IV 0.01 mg/kg, 120 min
[5] = dog #72, IV 0.01 mg/kg, 180 min
[6] = dog #72, IV 0.01 mg/kg, 240 min

In the case of “human insulin: human insulin given by IV injection (0.01 mg/kg) as reference in the dog study”, the “Plasma Glucose” value (dog #71, IV 0.01 mg/kg, 2 min) was 89 mg/dL, the “Plasma Insulin” value (dog #71, IV 0.01 mg/kg, 2 min) was 50.2 ng/mL and the “Plasma Glucose” value (dog #71, IV 0.01 mg/kg, 5 min) was 82 mg/dL. The “Plasma Insulin” value (dog #71, IV 0.01 mg/kg, 5 min) was 26.6 ng/mL, the “Plasma Glucose” value (dog #71, IV 0.01 mg/kg, 10 min) was 57 mg/dL and the “Plasma Glucose” value (dog #71, IV 0.01 mg/kg, 15 min) was 46 mg/dL. The “Plasma Insulin” value (dog #71, IV 0.01 mg/kg, 15 min) was 10.1 ng/mL, the “Plasma Glucose” value (dog #71, IV 0.01 mg/kg, 20 min) was 41 mg/dL and the “Plasma Glucose” value (dog #71, IV 0.01 mg/kg, 25 min) was 42 mg/dL. For the same substance, the “Plasma Insulin” value (dog #71, IV 0.01 mg/kg, 25 min) was 5.9 ng/mL, the “Plasma Glucose” value (dog #71, IV 0.01 mg/kg, 40 min) was 39 mg/dL and the “Plasma Glucose” value (dog #71, IV 0.01 mg/kg, 60 min) was 48 mg/dL. For the same substance, the “Plasma Glucose” value [1] was 69 mg/dL, the “Plasma Insulin” value [1] was 0.19 ng/mL and the “Plasma Glucose” value [2] was 87 mg/dL. For the same substance, the “Plasma Insulin” value [2] was 0.08 ng/mL, the “Plasma Glucose” value [3] was 86 mg/dL and the “Plasma Insulin” value [3] was 0.08 ng/mL. The “Plasma Glucose” value (dog #72, IV 0.01 mg/kg, 2 min) was 89 mg/dL, the “Plasma Insulin” value (dog #72, IV 0.01 mg/kg, 2 min) was 27.3 ng/mL and the “Plasma Glucose” value (dog #72, IV 0.01 mg/kg, 5 min) was 60 mg/dL. For the same substance, the “Plasma Insulin” value (dog #72, IV 0.01 mg/kg, 5 min) was 21.4 ng/mL, the “Plasma Glucose” value (dog #72, IV 0.01 mg/kg, 10 min) was 31 mg/dL and the “Plasma Glucose” value (dog #72, IV 0.01 mg/kg, 15 min) was 28 mg/dL. The “Plasma Glucose” value (dog #72, IV 0.01 mg/kg, 20 min) was 35 mg/dL, the “Plasma Insulin” value (dog #72, IV 0.01 mg/kg, 20 min) was 3.4 ng/mL and the “Plasma Glucose” value (dog #72, IV 0.01 mg/kg, 25 min) was 24 mg/dL. For the same substance, the “Plasma Glucose” value (dog #72, IV 0.01 mg/kg, 40 min) was 21 mg/dL, the “Plasma Insulin” value (dog #72, IV 0.01 mg/kg, 40 min) was 0.7 ng/mL and the “Plasma Glucose” value (dog #72, IV 0.01 mg/kg, 60 min) was 33 mg/dL. The “Plasma Insulin” value (dog #72, IV 0.01 mg/kg, 60 min) was 0.2 ng/mL, the “Plasma Glucose” value [4] was 68 mg/dL and the “Plasma Insulin” value [4] was 0.04 ng/mL. For the same substance, the “Plasma Glucose” value [5] was 102 mg/dL, the “Plasma Insulin” value [5] was 0 ng/mL and the “Plasma Glucose” value [6] was 99 mg/dL. The “Plasma Insulin” value [6] was 0.04 ng/mL.
